Data reported in ChEMBL document CHEMBL4340507, “Identification of an indol-based multi-target kinase inhibitor through phenotype screening and target fishing using inverse virtual screening approach” (Eur J Med Chem, 2019).
Calls of active or inactive are those of the source. The rule behind the calls is not given here.

Experiments:
[1] = molecular target: Platelet-derived growth factor receptor beta (Homo sapiens, UniProt P09619); experiment: Inhibition of recombinant human N-terminal GST-His6-fused PDGFR-beta C-terminal domain (R561 to L1106 residues) expressed in Sf9 insect cells using Poly(Ala,Glu,Lys,Tyr)6:2:5:1 as substrate measured after 60 mins in presence of [gamma-33P]-ATP by scintillation counting method
[2] = molecular target: High affinity nerve growth factor receptor (Homo sapiens, UniProt P04629); experiment: Inhibition of recombinant human wild-type N-terminal GST-His6-fused TRKA C-terminal domain (G443 to G796 residues) expressed in Sf9 insect cells using TRK-C derived peptide as substrate measured after 60 mins in presence of [gamma-33P]-ATP by scintillation counting method
HeLa [3] = experiment: Inhibition of ERK phosphorylation in human HeLa cells at 0.1 to 0.6 uM after 24 hrs by FACS analysis; assay type: cell-based
HeLa [4] = experiment: Induction of apoptosis in human HeLa cells assessed as increase in caspase 3 level at 0.1 to 0.6 uM after 24 hrs by FACS analysis; assay type: functional, cell-based
[5] = molecular target: Serine/threonine-protein kinase Chk2 (Homo sapiens, UniProt O96017); experiment: Inhibition of recombinant human CHK2 measured after 60 mins in presence of [gamma-33P]-ATP by scintillation counting method
IEC-6 [6] = experiment: Down regulation of ERK expression in rat IEC-6 cells at 0.1 to 0.6 uM after 24 hrs by FACS analysis; assay type: ADME, cell-based; conditions: iec-6, 24 h
[7] = molecular target: Mitogen-activated protein kinase 1 (Homo sapiens, UniProt P28482); experiment: Inhibition of recombinant human full-length untagged ERK2 (M1 to S360 residues) expressed in Escherichia coli using recombinant ELK1 as substrate measured after 60 mins in presence of [gamma-33P]-ATP by scintillation counting method
IEC-6 [8] = experiment: Induction of ROS generation in rat IEC-6 cells at 0.1 to 0.6 uM measured after 24 hrs by H2DCF-DA staining-based FACS analysis; assay type: cell-based; conditions: iec-6, 24 h
[9] = molecular target: Mitogen-activated protein kinase 3 (Homo sapiens, UniProt P27361); experiment: Inhibition of recombinant human full-length N-terminal GST-His6 fused ERK1 (M1 to P379 residues) expressed in Escherichia coli using RBER-CHKtide as substrate measured after 60 mins in presence of [gamma-33P]-ATP by scintillation counting method
[10] = molecular target: Fibroblast growth factor receptor 2 (Homo sapiens, UniProt P21802); experiment: Inhibition of recombinant human N-terminal GST-His6-fused FGFR2 C-terminal domain (R400 to T822 residues) expressed in Sf9 insect cells using TRK-C derived peptide as substrate measured after 60 mins in presence of [gamma-33P]-ATP by scintillation counting method
[11] = molecular target: Mitogen-activated protein kinase 14 (Homo sapiens, UniProt Q16539); experiment: Inhibition of recombinant human full-length untagged p38-alpha (M1 to S360 residues) expressed in Escherichia coli cells using recombinant ATF2 as substrate measured after 60 mins in presence of [gamma-33P]-ATP by scintillation counting method
[12] = molecular target: Mast/stem cell growth factor receptor Kit (Homo sapiens, UniProt P10721); experiment: Inhibition of recombinant human wild-type N-terminal GST-His6-fused KIT C-terminal domain (T544 to V976 residues) expressed in Sf9 insect cells using TRK-C derived peptide as substrate measured after 60 mins in presence of [gamma-33P]-ATP by scintillation counting method
[13] = molecular target: Platelet-derived growth factor receptor alpha (Homo sapiens, UniProt P16234); experiment: Inhibition of recombinant human wild-type N-terminal GST-His6-fused PDGFR-alpha C-terminal domain (Q551 to L1089 residues) expressed in Sf9 insect cells using TRK-C derived peptide as substrate measured after 60 mins in presence of [gamma-33P]-ATP by scintillation counting method
Wee1-like protein kinase = Wee1-like protein kinase (Homo sapiens, UniProt P30291); experiment: Inhibition of recombinant human N-terminal GST-His6-fused WEE1 C-terminal domain (Q36 to Y432 residues) expressed in Sf9 cells using Poly(Ala,Glu,Lys,Tyr)6:2:5:1 as substrate measured after 60 mins in presence of [gamma-33P]-ATP by scintillation counting method
HeLa [14] = experiment: Cell cycle arrest in human HeLa cells assessed as decrease in accumulation at G2-phase at 0.1 to 0.6 uM after 24 hrs by propidium iodide staining-based FACS analysis; assay type: functional
[15] = molecular target: Rho-associated protein kinase 1 (Homo sapiens, UniProt Q13464); experiment: Inhibition of recombinant human ROCK1 measured after 60 mins in presence of [gamma-33P]-ATP by scintillation counting method
[16] = molecular target: Receptor tyrosine-protein kinase erbB-4 (Homo sapiens, UniProt Q15303); experiment: Inhibition of recombinant human N-terminal GST-His6-fused ERBB4 C-terminal domain (R676 to V1307 residues) expressed in Sf9 cells using Poly(Glu:Tyr)4:1 as substrate measured after 60 mins in presence of [gamma-33P]-ATP by scintillation counting method
[17] = molecular target: Fibroblast growth factor receptor 3 (Homo sapiens, UniProt P22607); experiment: Inhibition of recombinant human wild-type N-terminal GST-His6-fused FGFR3 C-terminal domain (R397 to T806 residues) expressed in Sf9 insect cells using TRK-C derived peptide as substrate measured after 60 mins in presence of [gamma-33P]-ATP by scintillation counting method
SRSF protein kinase 1 = SRSF protein kinase 1 (Homo sapiens, UniProt Q96SB4); experiment: Inhibition of recombinant human full-length N-terminal GST-His6-fused SRPK1 (M1 to S655 residues) expressed in Sf9 insect cells using RS-peptide as substrate measured after 60 mins in presence of [gamma-33P]-ATP by scintillation counting method
[18] = molecular target: Vascular endothelial growth factor receptor 3 (Homo sapiens, UniProt P35916); experiment: Inhibition of recombinant human N-terminal GST-His6 fused VEGFR3 C-terminal domain (N799 to R1298 residues) expressed in baculovirus infected Sf9 insect cells using Poly(Glu:Tyr)4:1 as substrate measured after 60 mins in presence of [gamma-33P]-ATP by scintillation counting method
[19] = molecular target: Casein kinase II subunit alpha' (Homo sapiens, UniProt P19784); experiment: Inhibition of recombinant human full-length N-terminal GST-His6-fused CK2-alpha2 (M1 to R350 residues) expressed in Sf9 insect cells using casein as substrate measured after 60 mins in presence of [gamma-33P]-ATP by scintillation counting method
IEC-6 [20] = experiment: Induction of apoptosis in rat IEC-6 cells assessed as increase in caspase 3 level at 0.1 to 0.6 uM after 24 hrs by FACS analysis; assay type: cell-based; conditions: iec-6, 24 h
[21] = molecular target: Mitogen-activated protein kinase kinase kinase 9 (Homo sapiens, UniProt P80192); experiment: Inhibition of recombinant human MAP3K9 measured after 60 mins in presence of [gamma-33P]-ATP by scintillation counting method

- IC50 [1]: 81 µM
- IC50 [2]: 16 µM
- IC50 [5]: 79 µM
- IC50 [7]: 66 µM
- IC50 [9]: 65 µM
- IC50 [10]: 23 µM
- IC50 [11]: 88 µM
- IC50 [12]: 11 µM
- IC50 [13]: 48 µM
- IC50 (Wee1-like protein kinase): 79 µM
- IC50 [15]: 35 µM
- IC50 [16]: 7.9 µM
- IC50 [17]: 6.3 µM
- IC50 (SRSF protein kinase 1): 7.8 µM
- IC50 [18]: > 100 µM
- IC50 [19]: 99 µM
- IC50 [21]: 100 µM
SMILES: CN(CCc1ccc(-c2ccccc2)cc1)Cc1cn(C)c2ccc(C(=O)Nc3ccc(F)cc3)cc12
- inhibition (HeLa [3]): Active
- Activity (HeLa [4]): Active
- Activity (IEC-6 [6]): Non-Toxic
- Activity (IEC-6 [8]): Toxic
- Activity (HeLa [14]): Active
- Activity (IEC-6 [20]): Toxic
